From paper PMC12061832, “Exploring novel dilazep derivatives as hENT1 inhibitors and potentially covalent molecular tools” (Purinergic Signalling, 2024)
“And” between values parts separate entries of the source, which are not always exact repeats. Identical values can stand only once.

Biological target: T1, hENT1 (Homo sapiens, UniProt Q99808)
T1 construct: performed on erythrocyte cell membranes endogenously expressing the transporter; tissue Sanquin Bloedvoorziening, Amsterdam, The Netherlands; host or cells: erythrocyte membranes (endogenous expression)
T1 sequence (Q99808 1-456): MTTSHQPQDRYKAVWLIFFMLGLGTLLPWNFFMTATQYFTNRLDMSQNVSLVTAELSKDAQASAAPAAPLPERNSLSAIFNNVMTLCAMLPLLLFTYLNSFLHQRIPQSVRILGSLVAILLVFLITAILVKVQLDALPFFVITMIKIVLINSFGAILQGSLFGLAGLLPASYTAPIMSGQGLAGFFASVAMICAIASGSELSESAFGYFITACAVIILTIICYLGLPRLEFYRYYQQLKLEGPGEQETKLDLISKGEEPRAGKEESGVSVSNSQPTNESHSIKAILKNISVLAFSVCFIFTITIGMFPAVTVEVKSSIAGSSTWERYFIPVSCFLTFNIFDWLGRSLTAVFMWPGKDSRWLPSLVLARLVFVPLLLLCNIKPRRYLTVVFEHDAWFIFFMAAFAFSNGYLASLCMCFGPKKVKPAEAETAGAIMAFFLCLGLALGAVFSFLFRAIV
Test: [3H]NBTI displacement assay on erythrocyte membranes
Type: binding
Details: for % displacement at 1 μM: 1 µM inhibitor, [3H]NBTI displacement, mean (individual values) of two experiments; for Ki: erythrocyte membranes, 4 nM [3H]NBTI, 10 °C, 1 h
Procedure: Dilazep and ST7092 were obtained from ASTA-Werke AG (Bielefeld, Germany) and Chemie Linz AG (Linz, Austria), respectively. Radioligand displacement assays were performed as previously described. In brief, the experiments were performed on erythrocyte membranes (Sanquin Bloedvoorziening, Amsterdam, The Netherlands) using a single concentration of 1 µM or multiple concentrations (ranging from 10^–10 to 10^–6) of unlabeled inhibitors in the presence of 4 nM [^3H]NBTI at 10 °C for 1 h in assay buffer (50 mM Tris–HCl, pH 7.4, 0.1% w/v CHAPS). Non-specific binding (NSB) was assessed with 10 µM unlabeled NBTI. […] Subsequently, [^3H]NBTI was added to the preincubated and control samples (containing erythrocyte membranes, unlabeled inhibitor and radioligand) and both types of samples were incubated for another hour. Incubation was terminated by rapid vacuum filtration over Whatman™ UniFilter™ 96-well GF/C microplates using a FilterMate™ Universal Harvester (PerkinElmer, Groningen, The Netherlands). Subsequently, the plates were washed ten times with ice-cold wash buffer (50 mM Tris–HCl, pH 7.4). Thereafter, the filters were dried for 45 min at 55 °C and 25 µL of Microscint (PerkinElmer) was added per well. The filter-bound radioactivity was determined by scintillation spectrometry using a MicroBeta^2 2450 Microplate Counter (PerkinElmer).
For data analysis, dilazep and ST7092 were used as positive controls. All experimental data was analyzed using GraphPad Prism 10.0.2 software (GraphPad Software Inc., San Diego, CA, USA). [^3H]NBTI assays were baseline-corrected with NSB and normalized to this value (0%) and TB (100%). The radioligand displacement curves were fitted to a one-site binding model by nonlinear regression from which the pIC50 values were obtained. […] Data shown represent the mean ± SD of at least two or mean ± SEM of at least three individual experiments each performed in duplicate.
To determine the affinities of the non-covalent hENT1 inhibitors, a [^3H]NBTI displacement assay was performed on erythrocyte cell membranes endogenously expressing the transporter. All compounds were initially screened at a concentration of 1 µM to provide the percentage displacement. If more than 75% displacement was observed, compounds were subsequently characterized in full concentration-effect curves to determine their affinity.

Row | Compound | % displacement at 1 μM | decrease in affinity compared to ST7092 [fold] | Ki [nM]
1 | 3-(4-(3-((3-(methylamino)benzoyl)oxy)propyl)piperazin-1-yl)propyl 3,4,5-trimethoxybenzoate [Compound 6j] | 17 (16, 19) % | – | –
2 | 3-(4-(3-((4-(methylamino)benzoyl)oxy)propyl)piperazin-1-yl)propyl 3,4,5-trimethoxybenzoate [Compound 6i] | 6 (3, 9) % | – | –
3 | COc1cc(C(=O)OCCCN2CCN(CCCOC(=O)c3ccccc3)CC2)cc(OC)c1OC [Compound 6a, 3-(4-(3-(benzoyloxy)propyl)piperazin-1-yl)propyl 3,4,5-trimethoxybenzoate] | -3 (0, -5) % | – | –
4 | COc1cc(C(=O)OCCCN2CCN(CCCOC(=O)c3ccc(C)cc3)CC2)cc(OC)c1OC [Compound 6b, 3-(4-(3-((4-methylbenzoyl)oxy)propyl)piperazin-1-yl)propyl 3,4,5-trimethoxybenzoate] | 7 (10, 3) % | – | –
5 | COc1cc(C(=O)OCCCN2CCN(CCCOC(=O)c3ccc(C)c(C)c3)CC2)cc(OC)c1OC [Compound 6c, 3-(4-(3-((3,4-dimethylbenzoyl)oxy)propyl)piperazin-1-yl)propyl 3,4,5-trimethoxybenzoate] | -7 (-7, -8) % | – | –
6 | COc1cc(C(=O)OCCCN2CCN(CCCOC(=O)c3cc(C)cc(C)c3)CC2)cc(OC)c1OC [Compound 6d, 3-(4-(3-((3,5-dimethylbenzoyl)oxy)propyl)piperazin-1-yl)propyl 3,4,5-trimethoxybenzoate] | -4 (-4, -4) % | – | –
7 | COc1cc(C(=O)OCCCN2CCN(CCCOC(=O)c3ccc(Cl)cc3)CC2)cc(OC)c1OC [Compound 6e, 3-(4-(3-((4-chlorobenzoyl)oxy)propyl)piperazin-1-yl)propyl 3,4,5-trimethoxybenzoate] | not able to inhibit [^3H]NBTI binding and 1 (3, -1) % | – | –
8 | COc1cc(C(=O)OCCCN2CCN(CCCOC(=O)c3ccc(Cl)c(Cl)c3)CC2)cc(OC)c1OC [Compound 6f, 3-(4-(3-((3,4-dichlorobenzoyl)oxy)propyl)piperazin-1-yl)propyl 3,4,5-trimethoxybenzoate] | -4 (-7, -1) % | – | –
9 | COc1cc(C(=O)OCCCN2CCN(CCCOC(=O)c3cccc(N(C)C)c3)CC2)cc(OC)c1OC [Compound 6g, 3-(4-(3-((3-(dimethylamino)benzoyl)oxy)propyl)piperazin-1-yl)propyl 3,4,5-trimethoxybenzoate] | 21 (21, 21) % | – | –
10 | COc1cc(C(=O)OCCCN2CCN(CCCOC(=O)c3ccc(N(C)C)cc3)CC2)cc(OC)c1OC [Compound 6h, 3-(4-(3-((4-(dimethylamino)benzoyl)oxy)propyl)piperazin-1-yl)propyl 3,4,5-trimethoxybenzoate] | 19 (11, 26) % | – | –
11 | COc1ccccc1C(=O)OCCCN1CCN(CCCOC(=O)c2cc(OC)c(OC)c(OC)c2)CC1 [Compound 6k, 3-(4-(3-((2-methoxybenzoyl)oxy)propyl)piperazin-1-yl)propyl 3,4,5-trimethoxybenzoate] | little to no displacement and 6 (5, 8) % | – | –
12 | COc1cccc(C(=O)OCCCN2CCN(CCCOC(=O)c3cc(OC)c(OC)c(OC)c3)CC2)c1 [Compound 6l, 3-(4-(3-((3-methoxybenzoyl)oxy)propyl)piperazin-1-yl)propyl 3,4,5-trimethoxybenzoate] | little to no displacement and 9 (3, 16) % | – | –
13 | COc1ccc(C(=O)OCCCN2CCN(CCCOC(=O)c3cc(OC)c(OC)c(OC)c3)CC2)cc1 [Compound 6m, 3-(4-(3-((4-methoxybenzoyl)oxy)propyl)piperazin-1-yl)propyl 3,4,5-trimethoxybenzoate] | around 30% and 36 (39, 33) % | – | –
14 | COc1ccc(C(=O)OCCCN2CCN(CCCOC(=O)c3cc(OC)c(OC)c(OC)c3)CC2)cc1OC [Compound 6n, 3-(4-(3-((3,4-dimethoxybenzoyl)oxy)propyl)piperazin-1-yl)propyl 3,4,5-trimethoxybenzoate] | – | 80 | 136
15 | COc1cc(OC)cc(C(=O)OCCCN2CCN(CCCOC(=O)c3cc(OC)c(OC)c(OC)c3)CC2)c1 [Compound 6o, 3-(4-(3-((3,5-dimethoxybenzoyl)oxy)propyl)piperazin-1-yl)propyl 3,4,5-trimethoxybenzoate] | – | 80 | 146
16 | COc1ccccc1C(=O)OCCCN1CCN(CCCOC(=O)c2ccccc2OC)CC1 [Compound 6p, piperazine-1,4-diylbis(propane-3,1-diyl) bis(2-methoxybenzoate)] | 7 (15, -1) % | – | –
17 | COc1cccc(C(=O)OCCCN2CCN(CCCOC(=O)c3cccc(OC)c3)CC2)c1 [Compound 6q, piperazine-1,4-diylbis(propane-3,1-diyl) bis(3-methoxybenzoate)] | 8 (11, 4) % | – | –
18 | COc1ccc(C(=O)OCCCN2CCN(CCCOC(=O)c3ccc(OC)cc3)CC2)cc1 [Compound 6r, piperazine-1,4-diylbis(propane-3,1-diyl) bis(4-methoxybenzoate)] | -8 (-5, -11) % | – | –
19 | COc1ccc(C(=O)OCCCN2CCN(CCCOC(=O)c3ccc(OC)c(OC)c3)CC2)cc1OC [Compound 6s, piperazine-1,4-diylbis(propane-3,1-diyl) bis(3,4-dimethoxybenzoate)] | around 30% and 27 (33, 21) % | – | –
20 | COc1cc(OC)cc(C(=O)OCCCN2CCN(CCCOC(=O)c3cc(OC)cc(OC)c3)CC2)c1 [Compound 6t, piperazine-1,4-diylbis(propane-3,1-diyl) bis(3,5-dimethoxybenzoate)] | little to no displacement and 8 (12, 4) % | – | –
21 | COc1ccc(C(=O)OCCCN2CCN(CCCOC(=O)c3ccccc3OC)CC2)cc1OC [Compound 6u, 3-(4-(3-((2-methoxybenzoyl)oxy)propyl)piperazin-1-yl)propyl 3,4-dimethoxybenzoate] | little to no displacement and 12 (16, 9) % | – | –
22 | COc1cc(OC)cc(C(=O)OCCCN2CCN(CCCOC(=O)c3ccc(OC)c(OC)c3)CC2)c1 [Compound 6v, 3-(4-(3-((3,5-dimethoxybenzoyl)oxy)propyl)piperazin-1-yl)propyl 3,4-dimethoxybenzoate] | around 30% and 34 (42, 26) % | – | –
23 | COc1cc(C(=O)OCCCN2CCN(CCCOC(=O)c3cc(OC)c(OC)c(OC)c3)CC2)cc(OC)c1OC [ST7092, reference compound] | – | – | 1.79
